Among the test systems are CCRF-CEM; Malme-3M; HCT-116; SNB-19; SK-MEL-5; NCI-H23; SNB-75; HOP-62; MDA-MB-231; SK-MEL-28; HOP-92; NCI-H226; UACC-257; MOLT-4; K562; SF-295; SF-539; OVCAR-8; 786-0; HCT-15.
What all share (test): inhibition of tumour cell growth, NCI panel, 48 h

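48-hour exposure; five concentrations; linearly interpolated endpoints. At the GI50, growth is halved.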 Active and inactive are the calls of the source. Cut-off read from the data, not from the text of the source: active = GI50 up to about 1.1 µM and inactive = higher. Some results are limits rather than exact numbers.

For the compound `COC(=O)C1OC(O[C@H]2CC[C@]3(C)[C@H]4CC=C5[C@@H]6CC(C)(C)CC[C@]6(C(=O)OC6OCC(O)C(O)C6OC6OC(C)C(OC7OCC(O)C(O)C7O)C(OC7OCC(O)(CO)C7O)C6O)[C@H](O)C[C@@]5(C)[C@]4(C)CC[C@H]3C2(C)C)C(O)C(O)C1O` (stereo not given in full), the GI50 with CCRF-CEM was 14.9 µM (inactive); with Malme-3M, 4.14 µM (inactive); in the experiment on HCT-116 it was 3.61 µM (inactive); in the experiment with SNB-19, 5.57 µM (inactive); in the experiment on SK-MEL-5 it was 4.65 µM (inactive); in the experiment on NCI-H23, 1.8 µM (inactive). The GI50 with SNB-75 is 6.27 µM (inactive); in the experiment with HOP-62, 3.13 µM (inactive); in the experiment on MDA-MB-231 it was 2.32 µM (inactive); in the experiment on SK-MEL-28, 2.2 µM (inactive); in the experiment with HOP-92, 1.83 µM (inactive); in the experiment with NCI-H226, 4.23 µM (inactive). The GI50 is 2.96 µM (inactive) in the experiment with UACC-257; 5.13 µM (inactive) with MOLT-4; 5.08 µM (inactive) with K562; 4.43 µM (inactive) in the experiment with SF-295; 31.6 µM (inactive) in the experiment on SF-539; 10.5 µM (inactive) with OVCAR-8. In addition, the results for the GI50 in the experiment with 786-0 and in the experiment with HCT-15 were 7.45 µM (inactive) and 10.3 µM, respectively.

Regarding `N#CC(NCc1cccc(CNC(C#N)c2ccccc2)c1)c1ccccc1` (stereo not given), the GI50 is 18.1 µM (inactive) in the experiment on CCRF-CEM; 26.9 µM (inactive) in the experiment with Malme-3M; 23.8 µM (inactive) in the experiment on HCT-116; 64.4 µM (inactive) in the experiment with SNB-19; 42.3 µM (inactive) with SK-MEL-5; > 100 µM (inactive) in the experiment on NCI-H23. The GI50 with SNB-75 is 28.9 µM (inactive); in the experiment with HOP-62, > 100 µM (inactive); in the experiment on MDA-MB-231 it was 26.2 µM (inactive); in the experiment with SK-MEL-28, 18.1 µM (inactive); with HOP-92 it was 34.3 µM (inactive); with NCI-H226, > 100 µM (inactive). The GI50 in the experiment with UACC-257 was 59.6 µM (inactive); with MOLT-4, 16 µM (inactive); in the experiment on K562 it was 17.1 µM (inactive); in the experiment on SF-295 it was 18.7 µM (inactive); with SF-539, 0.0261 µM (active); in the experiment with OVCAR-8, 67 µM (inactive). The GI50 in the experiment on 786-0 is 35.6 µM (inactive); with HCT-15, 25.8 µM.

Take `CC(C)=CCN1c2ccccc2[C@@]2(CC=C(C)C)CCN(C)[C@@H]12` [(+)-DEBROMOFLUSTRAMINE B]: the GI50 is 34.2 µM (inactive) in the experiment with CCRF-CEM; 17.7 µM (inactive) with Malme-3M; 23.6 µM (inactive) with HCT-116; 22.3 µM (inactive) in the experiment with SNB-19; 17.6 µM (inactive) in the experiment with SK-MEL-5; 40.5 µM (inactive) with NCI-H23. Moreover, the GI50 is 26.1 µM (inactive) with SNB-75; 19.2 µM (inactive) with HOP-62; 21.4 µM (inactive) in the experiment on MDA-MB-231; 35.5 µM (inactive) with SK-MEL-28; 32.7 µM (inactive) with HOP-92; 44.2 µM (inactive) in the experiment on NCI-H226. The GI50 was > 10 µM (inactive) in the experiment on UACC-257; 25.6 µM (inactive) with MOLT-4; 19.6 µM (inactive) in the experiment with K562; 21 µM (inactive) in the experiment on SF-295; 24.3 µM (inactive) in the experiment on SF-539; 28.2 µM (inactive) in the experiment on OVCAR-8. For the same compound, the GI50 in the experiment on 786-0 was 19.2 µM (inactive); with HCT-15, 25.6 µM.

For the compound `NCCN(CCN)/[N+]([O-])=N/O`, the GI50 in the experiment on CCRF-CEM was 43.6 µM (inactive); with Malme-3M it was > 100 µM (inactive); with HCT-116, > 100 µM (inactive); in the experiment with SNB-19, > 100 µM (inactive); in the experiment with SK-MEL-5, > 100 µM (inactive); with NCI-H23 it was > 100 µM (inactive). Further, the GI50 in the experiment with SNB-75, in the experiment with HOP-62, with MDA-MB-231, with SK-MEL-28, with HOP-92 and in the experiment with NCI-H226 was > 100 µM (inactive) each time. Further, the GI50 in the experiment on UACC-257 is > 100 µM (inactive); in the experiment with MOLT-4 it was > 100 µM (inactive); with K562 it was 50.5 µM (inactive); with SF-295, > 100 µM (inactive); with SF-539, > 100 µM (inactive); with OVCAR-8, > 100 µM (inactive). The GI50 in the experiment on 786-0 is > 100 µM (inactive); with HCT-15, greater than 100 µM.

As to `C#CCn1c(=O)c(C)cn(/C(=C\C(=O)OCC)C(=O)OCC)c1=O`, the GI50 in the experiment with CCRF-CEM is 0.435 µM (active); in the experiment on Malme-3M, 2.1 µM (inactive); in the experiment with HCT-116, 3.34 µM (inactive); in the experiment on SNB-19 it was 19.7 µM (inactive); with SK-MEL-5 it was 22.3 µM (inactive); with NCI-H23, 12.6 µM (inactive). Further, the GI50 is 17.6 µM (inactive) with SNB-75; 20.5 µM (inactive) in the experiment with HOP-62; 10.1 µM (inactive) in the experiment on MDA-MB-231; 2.03 µM (inactive) in the experiment on SK-MEL-28; 2.12 µM (inactive) in the experiment on HOP-92; 17.1 µM (inactive) in the experiment on NCI-H226. For the same compound, the GI50 in the experiment with UACC-257 is 14.7 µM (inactive); in the experiment with MOLT-4, 2.65 µM (inactive); in the experiment on K562, 2.63 µM (inactive); in the experiment on SF-295, 19.5 µM (inactive); in the experiment on SF-539, 1.28 µM (inactive); in the experiment on OVCAR-8 it was 3.05 µM (inactive). The GI50 with 786-0 is 2.82 µM (inactive); with HCT-15 it was 1.58 µM.

Regarding `Cn1c2ccccc2c2c3c(c4c5ccccc5n(C)c4c21)C(=O)N(Cc1ccccc1)C3=O`, the GI50 was > 100 µM (inactive) in the experiment with CCRF-CEM; > 100 µM (inactive) with Malme-3M; > 100 µM (inactive) in the experiment on HCT-116; > 100 µM (inactive) with SNB-19; 77.4 µM (inactive) in the experiment with SK-MEL-5; > 100 µM (inactive) with NCI-H23. Also, the GI50 in the experiment with SNB-75 is > 100 µM (inactive); in the experiment with HOP-62, 19.3 µM (inactive); with MDA-MB-231, > 100 µM (inactive); in the experiment with SK-MEL-28, > 100 µM (inactive); with HOP-92, > 100 µM (inactive); in the experiment on NCI-H226, > 100 µM (inactive). The GI50 in the experiment with UACC-257, in the experiment on MOLT-4, with K562, in the experiment with SF-295, with SF-539 and in the experiment on OVCAR-8 was > 100 µM (inactive) in each case. In addition, the GI50 in the experiment with 786-0 is > 100 µM (inactive); with HCT-15 it was greater than 100 µM.

For `CCCCCN(CCCCC)CC(C)(C)C(O)c1ccc(OC)c2ccccc12` (stereo not given), the GI50 in the experiment on CCRF-CEM is 27.9 µM (inactive); in the experiment with Malme-3M, 14.1 µM (inactive); in the experiment on HCT-116, 12.9 µM (inactive); with SNB-19 it was 10.7 µM (inactive); in the experiment with SK-MEL-5 it was 3.52 µM (inactive); in the experiment on NCI-H23, 11.2 µM (inactive). In addition, the GI50 is 20.5 µM (inactive) with SNB-75; 22.9 µM (inactive) in the experiment with HOP-62; 13.8 µM (inactive) in the experiment on MDA-MB-231; 10.5 µM (inactive) with SK-MEL-28; 2.53 µM (inactive) in the experiment on HOP-92; 16.9 µM (inactive) in the experiment with NCI-H226. For the same compound, the GI50 in the experiment on UACC-257 was 13.1 µM (inactive); in the experiment with MOLT-4 it was 3.25 µM (inactive); with K562 it was 3.01 µM (inactive); in the experiment on SF-295 it was 9.77 µM (inactive); in the experiment with SF-539, 3.89 µM (inactive); with OVCAR-8, 10.5 µM (inactive). In addition, the GI50 is 12.4 µM (inactive) in the experiment with 786-0 and 5.81 µM in the experiment on HCT-15.

The values above are taken from ChEMBL document CHEMBL1201862, “PubChem BioAssay data set” (2004).
